Common to all, as to type: biochemical
One test has as its target T1, PI3Kβ (Homo sapiens, UniProt P42338).
T1 construct: made in house
Nature of the test: TR-FRET enzymatic activity assay, PI3Kβ. As to conditions: Table 2a; same assay.

A further test addresses T2, PI3Kδ (Homo sapiens, UniProt O00329).
T2 construct: made in house
Nature of the test: TR-FRET enzymatic activity assay, PI3Kδ. The note with it: Table 2a; same assay. For orientation: In TR-FRET formats the signal depends on donor and acceptor labels being close together.

A further test deals with T3, PI3Kγ (Homo sapiens, UniProt P48736).
T3 construct: made in house
The experiment in a line: TR-FRET enzymatic activity assay, PI3Kγ. The note with it: Table 2a; same assay; read-out: PI3Kγ IC50. The procedure, abridged:
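Compounds were profiled per isoform in a biochemical kinase reaction, with activity detected by time-resolved fluorescence resonance energy transfer.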

Structures are written as SMILES. A value given as a limit tells only on which side of the number the result lay.

T1 sequence (P42338 whole entry): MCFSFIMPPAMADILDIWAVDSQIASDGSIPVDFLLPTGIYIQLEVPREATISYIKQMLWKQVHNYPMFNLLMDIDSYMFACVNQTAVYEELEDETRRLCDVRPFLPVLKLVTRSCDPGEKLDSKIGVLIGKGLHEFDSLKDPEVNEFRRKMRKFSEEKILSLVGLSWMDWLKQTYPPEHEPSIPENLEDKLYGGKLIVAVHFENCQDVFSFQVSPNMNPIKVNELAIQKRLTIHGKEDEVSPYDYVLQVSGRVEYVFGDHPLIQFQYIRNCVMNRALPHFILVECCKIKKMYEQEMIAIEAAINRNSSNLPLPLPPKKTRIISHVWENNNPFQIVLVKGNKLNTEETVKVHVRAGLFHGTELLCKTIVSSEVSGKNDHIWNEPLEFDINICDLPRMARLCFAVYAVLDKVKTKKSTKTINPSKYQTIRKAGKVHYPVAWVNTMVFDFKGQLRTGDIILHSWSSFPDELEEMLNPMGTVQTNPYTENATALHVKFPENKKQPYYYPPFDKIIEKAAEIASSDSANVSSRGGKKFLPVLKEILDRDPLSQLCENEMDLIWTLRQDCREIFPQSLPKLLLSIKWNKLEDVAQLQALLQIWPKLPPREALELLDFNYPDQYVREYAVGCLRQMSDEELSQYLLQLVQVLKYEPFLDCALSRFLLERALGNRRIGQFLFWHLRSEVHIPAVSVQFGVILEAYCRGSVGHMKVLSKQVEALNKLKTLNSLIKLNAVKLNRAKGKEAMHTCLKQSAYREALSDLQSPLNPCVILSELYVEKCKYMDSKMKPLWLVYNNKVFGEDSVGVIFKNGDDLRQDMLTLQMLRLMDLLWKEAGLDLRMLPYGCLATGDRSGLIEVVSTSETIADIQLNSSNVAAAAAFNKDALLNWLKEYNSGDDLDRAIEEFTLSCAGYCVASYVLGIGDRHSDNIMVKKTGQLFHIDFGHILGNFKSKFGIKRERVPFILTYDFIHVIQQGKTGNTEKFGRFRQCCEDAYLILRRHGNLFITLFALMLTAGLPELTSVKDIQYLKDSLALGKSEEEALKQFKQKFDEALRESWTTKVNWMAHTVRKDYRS
T1 sequence (P27986 whole entry partner): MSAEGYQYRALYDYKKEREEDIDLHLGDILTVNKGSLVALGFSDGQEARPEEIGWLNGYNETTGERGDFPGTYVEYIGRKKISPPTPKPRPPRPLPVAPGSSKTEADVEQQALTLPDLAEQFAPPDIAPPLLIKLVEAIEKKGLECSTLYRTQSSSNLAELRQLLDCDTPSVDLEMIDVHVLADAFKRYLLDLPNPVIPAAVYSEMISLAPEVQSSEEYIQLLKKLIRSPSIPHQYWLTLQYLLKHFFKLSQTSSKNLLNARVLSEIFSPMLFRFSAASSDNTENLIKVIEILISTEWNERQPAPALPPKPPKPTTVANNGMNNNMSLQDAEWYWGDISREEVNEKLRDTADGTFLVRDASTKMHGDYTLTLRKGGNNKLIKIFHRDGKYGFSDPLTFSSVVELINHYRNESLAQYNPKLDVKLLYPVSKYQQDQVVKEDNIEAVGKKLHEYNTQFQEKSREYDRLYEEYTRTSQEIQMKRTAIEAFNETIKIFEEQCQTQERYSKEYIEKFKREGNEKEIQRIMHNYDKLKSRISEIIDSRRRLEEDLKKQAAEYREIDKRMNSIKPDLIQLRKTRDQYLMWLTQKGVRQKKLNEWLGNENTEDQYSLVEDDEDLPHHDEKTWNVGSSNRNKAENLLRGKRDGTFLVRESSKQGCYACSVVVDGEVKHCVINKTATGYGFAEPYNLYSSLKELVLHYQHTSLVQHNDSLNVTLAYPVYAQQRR
T3 sequence (P48736 whole entry): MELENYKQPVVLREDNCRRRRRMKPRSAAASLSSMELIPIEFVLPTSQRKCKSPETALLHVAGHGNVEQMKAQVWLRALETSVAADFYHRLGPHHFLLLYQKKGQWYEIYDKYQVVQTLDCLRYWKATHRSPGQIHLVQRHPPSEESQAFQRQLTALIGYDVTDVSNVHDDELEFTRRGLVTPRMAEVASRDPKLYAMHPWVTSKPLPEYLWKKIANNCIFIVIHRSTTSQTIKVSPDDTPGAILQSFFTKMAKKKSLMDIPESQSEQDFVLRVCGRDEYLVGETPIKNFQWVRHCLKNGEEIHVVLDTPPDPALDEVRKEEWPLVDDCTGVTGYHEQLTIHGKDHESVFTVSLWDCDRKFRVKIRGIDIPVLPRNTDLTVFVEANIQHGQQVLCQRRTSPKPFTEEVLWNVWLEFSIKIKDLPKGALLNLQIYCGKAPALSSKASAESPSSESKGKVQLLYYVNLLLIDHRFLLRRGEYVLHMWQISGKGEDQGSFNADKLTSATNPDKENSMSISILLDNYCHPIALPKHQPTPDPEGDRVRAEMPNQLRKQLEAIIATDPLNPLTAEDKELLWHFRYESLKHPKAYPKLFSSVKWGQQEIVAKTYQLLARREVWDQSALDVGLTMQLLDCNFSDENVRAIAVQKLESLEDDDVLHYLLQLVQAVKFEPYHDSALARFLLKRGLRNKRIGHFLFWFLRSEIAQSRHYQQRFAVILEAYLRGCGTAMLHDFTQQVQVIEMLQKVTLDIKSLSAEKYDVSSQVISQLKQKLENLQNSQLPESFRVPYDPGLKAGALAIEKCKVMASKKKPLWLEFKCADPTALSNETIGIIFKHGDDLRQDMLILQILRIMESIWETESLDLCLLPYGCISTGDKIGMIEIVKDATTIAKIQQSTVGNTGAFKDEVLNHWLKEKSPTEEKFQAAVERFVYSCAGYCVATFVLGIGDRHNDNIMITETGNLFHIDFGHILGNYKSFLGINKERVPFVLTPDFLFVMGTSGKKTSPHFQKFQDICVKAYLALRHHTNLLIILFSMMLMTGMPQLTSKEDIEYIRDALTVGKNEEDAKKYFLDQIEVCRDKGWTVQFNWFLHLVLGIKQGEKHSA
T2 sequence (O00329 whole entry): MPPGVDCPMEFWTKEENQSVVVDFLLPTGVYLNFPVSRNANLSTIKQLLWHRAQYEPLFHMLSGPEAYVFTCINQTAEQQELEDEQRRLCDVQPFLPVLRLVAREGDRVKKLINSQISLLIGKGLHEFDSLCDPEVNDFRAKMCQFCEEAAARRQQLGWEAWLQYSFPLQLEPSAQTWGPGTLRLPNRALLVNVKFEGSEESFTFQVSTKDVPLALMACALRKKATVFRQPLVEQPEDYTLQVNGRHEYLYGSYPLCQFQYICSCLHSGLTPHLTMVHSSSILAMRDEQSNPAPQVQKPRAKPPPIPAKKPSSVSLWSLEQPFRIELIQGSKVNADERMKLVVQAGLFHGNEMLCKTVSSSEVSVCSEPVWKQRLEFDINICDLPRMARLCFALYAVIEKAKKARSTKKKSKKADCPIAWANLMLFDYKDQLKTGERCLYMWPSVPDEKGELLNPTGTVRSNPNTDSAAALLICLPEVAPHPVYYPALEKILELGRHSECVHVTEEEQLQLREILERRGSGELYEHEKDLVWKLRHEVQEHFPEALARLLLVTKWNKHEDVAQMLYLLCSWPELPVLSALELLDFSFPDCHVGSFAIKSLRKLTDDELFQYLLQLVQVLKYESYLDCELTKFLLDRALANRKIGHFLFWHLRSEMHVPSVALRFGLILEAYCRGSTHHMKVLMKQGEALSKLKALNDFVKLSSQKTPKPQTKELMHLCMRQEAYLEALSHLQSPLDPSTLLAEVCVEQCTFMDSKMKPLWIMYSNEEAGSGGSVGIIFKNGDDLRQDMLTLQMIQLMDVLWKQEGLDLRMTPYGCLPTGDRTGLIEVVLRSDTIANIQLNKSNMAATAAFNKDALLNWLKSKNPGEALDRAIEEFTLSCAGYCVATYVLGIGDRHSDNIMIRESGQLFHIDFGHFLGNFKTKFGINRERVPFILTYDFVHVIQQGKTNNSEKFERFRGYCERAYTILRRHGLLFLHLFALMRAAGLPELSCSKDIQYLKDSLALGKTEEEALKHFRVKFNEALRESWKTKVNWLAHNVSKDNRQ
T2 sequence (P27986 whole entry partner): as the sequence (P27986 whole entry partner) above

The term IC50 denotes the midpoint of a concentration-inhibition curve. `C[C@H](Nc1nc(N)nc(N)c1C#N)c1nc2cc(Cl)ccc2c(=O)n1-c1cc[nH]n1` [Compound 139]: the IC50 is 0.033 µM on PI3Kβ, 0.021 µM at PI3Kδ and > 10 µM on PI3Kγ.

For the compound `C[C@H](Nc1nc(N)nc(N)c1C#N)c1nc2c(C(F)F)cc(F)cc2c(=O)n1-c1cc[nH]n1` [Compound 140], the 50% inhibitory concentration (IC50) against PI3Kβ was determined as 0.002 µM; at PI3Kδ it was 0.005 µM; on PI3Kγ, 6.08 µM.

Consider `C[C@H](Nc1nc(N)nc(N)c1Cl)c1nc2c(C(F)F)cc(F)cc2c(=O)n1-c1cc[nH]n1` [Compound 141, (S)-2-(1-((2,6-diamino-5-chloropyrimidin-4-yl)amino)ethyl)-8-(difluoromethyl)-6-fluoro-3-(1H-pyrazol-3-yl)quinazolin-4(3H)-one], for which the half-inhibitory concentration (IC50) at PI3Kβ was 0.13 µM; on PI3Kδ it was 0.11 µM; on PI3Kγ it was > 10 µM.

For the compound `C[C@H](Nc1nc(N)nc(C(F)F)c1C#N)c1nc2c(C(F)F)cc(F)cc2c(=O)n1-c1cc[nH]n1` [Compound 142, (S)-2-amino-4-(difluoromethyl)-6-((1-(8-(difluoromethyl)-6-fluoro-4-oxo-3-(1H-pyrazol-3-yl)-3,4-dihydroquinazolin-2-yl)ethyl)amino)pyrimidine-5-carbonitrile], the IC50 on PI3Kβ was 0.035 µM; against PI3Kδ it was 0.047 µM; at PI3Kγ it was > 10 µM.

For the compound `N#Cc1c(N)nc(N)nc1N[C@H](c1nc2c(C(F)F)cc(F)cc2c(=O)n1-c1cc[nH]n1)C1CC1` [Compound 143, (S)-2,4-diamino-6-((cyclopropyl(8-(difluoromethyl)-6-fluoro-4-oxo-3-(1H-pyrazol-3-yl)-3,4-dihydroquinazolin-2-yl)methyl)amino)pyrimidine-5-carbonitrile], the values for the IC50 against PI3Kβ, against PI3Kδ and on PI3Kγ were 0.002 µM, 0.003 µM and 7.5 µM, respectively.

As for `Nc1nc(N)c(Cl)c(N[C@H](c2nc3c(C(F)F)cc(F)cc3c(=O)n2-c2cc[nH]n2)C2CC2)n1` [Compound 144, (S)-2-(cyclopropyl((2,6-diamino-5-chloropyrimidin-4-yl)amino)methyl)-8-(difluoromethyl)-6-fluoro-3-(1H-pyrazol-3-yl)quinazolin-4(3H)-one], the half-inhibitory concentration (IC50) against PI3Kβ is 0.13 µM; on PI3Kδ it was 0.19 µM; on PI3Kγ it was > 10 µM.

Consider `N#Cc1c(N[C@H](c2nc3c(C(F)F)cc(F)cc3c(=O)n2-c2cc[nH]n2)C2CC2)nc(N)nc1C(F)F` [Compound 145, (S)-2-amino-4-((cyclopropyl(8-(difluoromethyl)-6-fluoro-4-oxo-3-(1H-pyrazol-3-yl)-3,4-dihydroquinazolin-2-yl)methyl)amino)-6-(difluoromethyl)pyrimidine-5-carbonitrile], for which the half-maximal inhibitory concentration (IC50) against PI3Kβ was 0.028 µM; on PI3Kδ it was 0.046 µM; on PI3Kγ it was > 10 µM.

As for `C[C@H](Nc1nc(N)nc(N)c1Cl)c1nc2c(Cl)ccc(F)c2c(=O)n1-c1cc[nH]n1` [Compound 147, (S)-8-chloro-2-(1-((2,6-diamino-5-chloropyrimidin-4-yl)amino)ethyl)-5-fluoro-3-(1H-pyrazol-3-yl)quinazolin-4(3H)-one], the IC50 against PI3Kβ is 0.014 µM; against PI3Kδ it was 0.015 µM; at PI3Kγ, > 10 µM.

For the compound `Nc1nc(N)c(Cl)c(N[C@H](c2nc3c(Cl)ccc(F)c3c(=O)n2-c2cc[nH]n2)C2CC2)n1` [Compound 148, (S)-8-chloro-2-(cyclopropyl((2,6-diamino-5-chloropyrimidin-4-yl)amino)methyl)-5-fluoro-3-(1H-pyrazol-3-yl)quinazolin-4(3H)-one], the IC50 was 0.052 µM on PI3Kβ, 0.044 µM at PI3Kδ and > 10 µM at PI3Kγ.

With `Nc1nc(N)c(Cl)c(N[C@@H](CO)c2nc3c(Cl)cc(F)cc3c(=O)n2-c2cc[nH]n2)n1` [Compound 149, (R)-8-chloro-2-(1-((2,6-diamino-5-chloropyrimidin-4-yl)amino)-2-hydroxyethyl)-6-fluoro-3-(1H-pyrazol-3-yl)quinazolin-4(3H)-one], the results for the IC50 at PI3Kβ, against PI3Kδ and at PI3Kγ were 0.093 µM, 0.21 µM and > 10 µM, respectively.

As to `C[C@H](Nc1ncnc2scc(Br)c12)c1nc2cccc(Cl)c2c(=O)n1-c1cc[nH]n1` [Compound 150, (S)-2-(1-((5-bromothieno[2,3-d]pyrimidin-4-yl)amino)ethyl)-5-chloro-3-(1H-pyrazol-3-yl)quinazolin-4(3H)-one], the IC50 at PI3Kβ was found to be 0.006 µM; against PI3Kδ it was 0.002 µM; at PI3Kγ, 3 µM.

As to `C[C@H](Nc1nc(N)nc(N)c1Cl)c1nc2c(F)ccc(F)c2c(=O)n1-c1cc[nH]n1` [Compound 152, (S)-2-(1-((2,6-diamino-5-chloropyrimidin-4-yl)amino)ethyl)-5,8-difluoro-3-(1H-pyrazol-3-yl)quinazolin-4(3H)-one], the IC50 against PI3Kβ was 0.02 µM; against PI3Kδ it was 0.013 µM; at PI3Kγ, > 10 µM.

As for `C[C@H](Nc1nc(N)nc(N)c1Cl)c1nc2cccc(Cl)c2c(=O)n1-c1cc(Cl)[nH]n1` [Compound 154, (S)-5-chloro-3-(5-chloro-1H-pyrazol-3-yl)-2-(1-((2,6-diamino-5-chloropyrimidin-4-yl)amino)ethyl)quinazolin-4(3H)-one], the values for the IC50 against PI3Kβ, on PI3Kδ and at PI3Kγ were 0.1 µM, 0.013 µM and 3.3 µM, respectively.

Regarding `C[C@H](Nc1nc(N)nc(N)c1Cl)c1nc2cccc(Cl)c2c(=O)n1-c1cc(F)[nH]n1` [Compound 155, (S)-5-chloro-2-(1-((2,6-diamino-5-chloropyrimidin-4-yl)amino)ethyl)-3-(5-fluoro-1H-pyrazol-3-yl)quinazolin-4(3H)-one], the results for the IC50 against PI3Kβ, against PI3Kδ and at PI3Kγ were 0.043 µM, 0.01 µM and 0.5 µM, respectively.

In the case of `C[C@H](Nc1nc(N)nc(N)c1Cl)c1nc2c(Cl)cccc2c(=O)n1-c1cc[nH]n1` [Compound 156, (S)-8-chloro-2-(1-((2,6-diamino-5-chloropyrimidin-4-yl)amino)ethyl)-3-(1H-pyrazol-3-yl)quinazolin-4(3H)-one], the results for the IC50 at PI3Kβ, on PI3Kδ and at PI3Kγ were 0.026 µM, 0.009 µM and > 10 µM, respectively.

For the compound `C[C@H](Nc1nc(N)nc(N)c1Cl)c1nc2cccc(Cl)c2c(=O)n1-c1cn[nH]c1` [Compound 157, (S)-5-chloro-2-(1-((2,6-diamino-5-chloropyrimidin-4-yl)amino)ethyl)-3-(1H-pyrazol-4-yl)quinazolin-4(3H)-one], the IC50 at PI3Kβ was determined as 0.015 µM; at PI3Kδ, 0.002 µM; on PI3Kγ, 1.2 µM.

Take `C[C@H](Nc1nc(N)nc(N)c1Cl)c1nc2c(Cl)ccc(Cl)c2c(=O)n1-c1cn[nH]c1` [Compound 158, (S)-5,8-dichloro-2-(1-((2,6-diamino-5-chloropyrimidin-4-yl)amino)ethyl)-3-(1H-pyrazol-4-yl)quinazolin-4(3H)-one]: the figures for the concentration for half-maximal inhibition (IC50) at PI3Kβ, against PI3Kδ and at PI3Kγ were 0.083 µM, 0.01 µM and 5.2 µM, respectively.

As for `C[C@H](Nc1nc(N)nc(N)c1Cl)c1nc2c(F)ccc(Cl)c2c(=O)n1-c1cn[nH]c1` [Compound 159, (S)-5-chloro-2-(1-((2,6-diamino-5-chloropyrimidin-4-yl)amino)ethyl)-8-fluoro-3-(1H-pyrazol-4-yl)quinazolin-4(3H)-one], the half-inhibitory concentration (IC50) on PI3Kβ was determined as 0.022 µM; against PI3Kδ it was 0.003 µM; on PI3Kγ, 1.6 µM.

With `Nc1nc(N)c(Cl)c(N[C@H](c2nc3c(F)cc(F)cc3c(=O)n2-c2cc[nH]n2)C2CC2)n1` [Compound 162, (S)-2-(cyclopropyl((2,6-diamino-5-chloropyrimidin-4-yl)amino)methyl)-6,8-difluoro-3-(1H-pyrazol-3-yl)quinazolin-4(3H)-one], the figures for the IC50 on PI3Kβ, at PI3Kδ and at PI3Kγ were 0.037 µM, 0.005 µM and 6.1 µM, respectively.

Regarding `C[C@H](Nc1ncnc(N)c1Cl)c1nc2cccc(Cl)c2c(=O)n1-c1cc[nH]n1` [Compound 164, (S)-2-(1-((6-amino-5-chloropyrimidin-4-yl)amino)ethyl)-5-chloro-3-(1H-pyrazol-3-yl)quinazolin-4(3H)-one], the concentration for half-maximal inhibition (IC50) amounted to 0.003 µM against PI3Kβ, 0.0006 µM against PI3Kδ and 4.3 µM on PI3Kγ.

In the case of `Nc1ncnc(N[C@H](c2nc3cccc(Cl)c3c(=O)n2-c2cc[nH]n2)C2CC2)c1Cl` [Compound 165, (S)-2-(((6-amino-5-chloropyrimidin-4-yl)amino)(cyclopropyl)methyl)-5-chloro-3-(1H-pyrazol-3-yl)quinazolin-4(3H)-one], the IC50 came out at 0.006 µM against PI3Kβ, 0.001 µM against PI3Kδ and 4.2 µM on PI3Kγ.

For the compound `C[C@H](Nc1nc(N)nc(C(F)F)c1C#N)c1nc2cccc(Cl)c2c(=O)n1-c1cc[nH]n1` [Compound 166, (S)-2-amino-4-((1-(5-chloro-4-oxo-3-(1H-pyrazol-3-yl)-3,4-dihydroquinazolin-2-yl)ethyl)amino)-6-(difluoromethyl)pyrimidine-5-carbonitrile], the values for the concentration for half-maximal inhibition (IC50) against PI3Kβ, against PI3Kδ and at PI3Kγ were 0.016 µM, 0.008 µM and 0.68 µM, respectively.

As to `C[C@H](Nc1ncnc2sncc12)c1nc2cccc(Cl)c2c(=O)n1-c1cc[nH]n1` [Compound 167, (S)-5-chloro-2-(1-(isothiazolo[5,4-d]pyrimidin-4-ylamino)ethyl)-3-(1H-pyrazol-3-yl)quinazolin-4(3H)-one], the half-maximal inhibitory concentration (IC50) against PI3Kβ was 0.11 µM; at PI3Kδ, 0.018 µM; at PI3Kγ it was > 10 µM.

For `C[C@H](Nc1nc(N)nc(N)c1C#N)c1nc2c(F)cc(F)cc2c(=O)n1-c1cc[nH]n1` [Compound 169, (S)-2,4-diamino-6-((1-(6,8-difluoro-4-oxo-3-(1H-pyrazol-3-yl)-3,4-dihydroquinazolin-2-yl)ethyl)amino)pyrimidine-5-carbonitrile], the values for the IC50 at PI3Kβ, against PI3Kδ and at PI3Kγ were 0.001 µM, 0.0006 µM and 0.26 µM, respectively.

The values are drawn from patent US10308639B2, “Phosphatidylinositol 3-kinase inhibitors” (Gilead Sciences, Inc., priority 2014, dated 2019).
